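Cells were grown in 96-well plates and exposed to each compound for 48 hours at five concentrations; endpoints were interpolated linearly between bracketing concentrations, or set to the highest concentration if not reached. At the GI50, growth is halved. TGI: concentration producing complete growth inhibition.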
How the values were obtained:
Experiment in all cases: NCI tumour cell line growth inhibition, 48 h
EKVX NSCLC = system: EKVX NSCLC
SK-MEL-28 melanoma = system: SK-MEL-28 melanoma
HCT-15 colon = system: HCT-15 colon
CCRF-CEM leukemia = system: CCRF-CEM leukemia
OVCAR-5 ovarian = system: OVCAR-5 ovarian
NCI/ADR-RES ovarian = system: NCI/ADR-RES ovarian
NCI-H23 lung = system: NCI-H23 lung
HCC-2998 colon = system: HCC-2998 colon
A498 renal = system: A498 renal
SW-620 colon = system: SW-620 colon
SNB-75 CNS = system: SNB-75 CNS
U251 CNS = system: U251 CNS
LOX IMVI melanoma = system: LOX IMVI melanoma
OVCAR-4 ovarian = system: OVCAR-4 ovarian
SR leukemia = system: SR leukemia
PC-3 prostate = system: PC-3 prostate
SK-MEL-2 melanoma = system: SK-MEL-2 melanoma
KM12 colon = system: KM12 colon
T-47D breast = system: T-47D breast
HT29 colon = system: HT29 colon
SF-295 CNS = system: SF-295 CNS
HOP-92 NSCLC = system: HOP-92 NSCLC
ACHN renal = system: ACHN renal
HL-60(TB) leukemia = system: HL-60(TB) leukemia
MOLT-4 leukemia = system: MOLT-4 leukemia
OVCAR-3 ovarian = system: OVCAR-3 ovarian
MCF7 breast = system: MCF7 breast

With `COC1C(O)CC(OC2CC(OC3CC(O[C@@H]4C(=O)c5c(cc6cc(OC7CC(OC8CC(O)C(O)C(C)O8)C(O)C(C)O7)c(C)c(O)c6c5O)CC4[C@H](OC)C(=O)C(C)=O)OC(C)C3O)OC(C)C2O)OC1C` (stereo partly drawn) the GI50 (EKVX NSCLC) was 20.1 nM, the TGI (EKVX NSCLC) was > 33300 nM and the GI50 (SK-MEL-28 melanoma) was 10.6 nM. The TGI (SK-MEL-28 melanoma) was 52.8 nM, the GI50 (HCT-15 colon) was 101 nM and the TGI (HCT-15 colon) was > 33300 nM. The GI50 (CCRF-CEM leukemia) was 15.6 nM, the TGI (CCRF-CEM leukemia) was 673 nM and the GI50 (OVCAR-5 ovarian) was 23.4 nM. The TGI (OVCAR-5 ovarian) was > 33300 nM, the GI50 (NCI/ADR-RES ovarian) was 433 nM and the TGI (NCI/ADR-RES ovarian) was > 33300 nM. For the same compound, the GI50 (NCI-H23 lung) was 12.5 nM, the TGI (NCI-H23 lung) was 66.1 nM and the GI50 (HCC-2998 colon) was 10.6 nM. For the same compound, the TGI (HCC-2998 colon) was 40.2 nM, the GI50 (A498 renal) was 23.3 nM and the TGI (A498 renal) was 88.4 nM. The GI50 (SW-620 colon) was 15.5 nM, the TGI (SW-620 colon) was > 33300 nM and the GI50 (SNB-75 CNS) was 6.78 nM. For the same compound, the TGI (SNB-75 CNS) was 20 nM, the GI50 (U251 CNS) was < 10.6 nM and the TGI (U251 CNS) was > 33300 nM. The GI50 (LOX IMVI melanoma) was 8.5 nM, the TGI (LOX IMVI melanoma) was 22.9 nM and the GI50 (OVCAR-4 ovarian) was 24.5 nM. The TGI (OVCAR-4 ovarian) was 10800 nM, the GI50 (SR leukemia) was 9.1 nM and the TGI (SR leukemia) was 64.5 nM. For the same compound, the GI50 (PC-3 prostate) was < 14.2 nM, the TGI (PC-3 prostate) was > 22600 nM and the GI50 (SK-MEL-2 melanoma) was 9.27 nM. For the same compound, the TGI (SK-MEL-2 melanoma) was 27.5 nM, the GI50 (KM12 colon) was 10.9 nM and the TGI (KM12 colon) was > 16000 nM. It also gave a GI50 (T-47D breast) of 12 nM, a TGI (T-47D breast) of 79.1 nM and a GI50 (HT29 colon) of 12.2 nM. It also gave a TGI (HT29 colon) of 53.5 nM, a GI50 (SF-295 CNS) of 11 nM and a GI50 (HOP-92 NSCLC) of 10.8 nM. The TGI (HOP-92 NSCLC) was 66.9 nM, the GI50 (ACHN renal) was 52 nM and the TGI (ACHN renal) was > 33300 nM. It also gave a GI50 (HL-60(TB) leukemia) of 15.9 nM, a TGI (HL-60(TB) leukemia) of 59.4 nM and a GI50 (MOLT-4 leukemia) of 12.3 nM. It also gave a TGI (MOLT-4 leukemia) of 60.7 nM, a GI50 (OVCAR-3 ovarian) of 13.1 nM and a TGI (OVCAR-3 ovarian) of 67.3 nM. The GI50 (MCF7 breast) was 10.8 nM and the TGI (MCF7 breast) was > 33300 nM.
